Laboratory results as given in patent publication US6355799B1, “Substituted benzene compounds, process for their preparation, and herbicidal and defoliant compositions containing them” (ISK Americas Incorporated, priority 1997, dated 2002).

Key:
Assay type in all cases: in vivo
[1] = test system: velvetleaf (Abutilon theophrasti, ABUTH); assay: Post-emerge test, greenhouse herbicide activity screening; details: post-emerge, phytotoxicity rating 0-100 at 14 days after application
Method in brief: (§1)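 Plants grown in 10 cm pots of sandy loam mix received acetone-dissolved compounds through a moving flat-fan nozzle. Doses ranged from 15 to 1000 g ai/ha. Pre-emerge pots were seeded one day earlier, post-emerge pots 8–21 days earlier. Fourteen days on, each pot was graded 0–100 for damage.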

[2] = test system: sicklepod (Cassia obtusifolia, CASOB); assay: as above; details: post-emerge, phytotoxicity rating 0-100 at 14 days after application
Method in brief: as §1

[3] = test system: lambsquarters (Chenopodium album, CHEAL); assay: as above; details: post-emerge, phytotoxicity rating 0-100 at 14 days after application
Method in brief: as §1

[4] = test system: large crabgrass (Digitaria sanguinalis, DIGSA); assay: as above; details: post-emerge, phytotoxicity rating 0-100 at 14 days after application
Method in brief: as §1

[5] = test system: johnsongrass (Sorghum halepense, SORHA); assay: as above; details: post-emerge, phytotoxicity rating 0-100 at 14 days after application
Method in brief: as §1

[6] = test system: redroot pigweed (Amaranthus retroflexus, AMARE); assay: as above; details: post-emerge, phytotoxicity rating 0-100 at 14 days after application
Method in brief: as §1

[7] = test system: barnyardgrass (Echinochloa crus-galli, ECHCG); assay: as above; details: post-emerge, phytotoxicity rating 0-100 at 14 days after application
Method in brief: as §1

[8] = test system: ivyleaf morningglory (Ipomoea hederacea, IPOHE); assay: as above; details: post-emerge, phytotoxicity rating 0-100 at 14 days after application
Method in brief: as §1

[9] = test system: green foxtail (Setaria viridis, SETVI); assay: as above; details: post-emerge, phytotoxicity rating 0-100 at 14 days after application
Method in brief: as §1

[10] = test system: redroot pigweed (Amaranthus retroflexus, AMARE); assay: Pre-emerge test, greenhouse herbicide activity screening; details: pre-emerge, phytotoxicity rating 0-100 at 14 days after application
Method in brief: (§2)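 Compounds in acetone were track-sprayed at 187 l/ha, 15–1000 g ai/ha, onto sandy loam pots. Pre-emerge seeds were sown one day before spraying, with surface watering afterwards. Post-emerge plants were at the 2–3 leaf stage and sprayed with 0.25% v/v non-ionic surfactant. Injury was rated 0–100 at 14 days.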

[11] = test system: field corn (Zea mays L., var. Dekalb 535, CORN); assay: Post-emerge test, crop safety; details: post-emerge, crop damage rating 0-100 at 14 days after application
Method in brief: (§3)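 Applied at 15–1000 g ai/ha from acetone in 187 l/ha spray volume. Post-emergence applications included 0.25% v/v non-ionic surfactant and reached plants sown 8–21 days before. Pre-emergence applications were incorporated by surface watering. Efficacy or crop damage was rated on a 0–100 scale after 14 days.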

[12] = test system: upland rice (Oryza sp., var. Tebonnet, RICE); assay: Post-emerge test, crop safety; details: post-emerge, crop damage rating 0-100 at 14 days after application
Method in brief: as §3

[13] = test system: field corn (Zea mays L., var. Dekalb 535, CORN); assay: Pre-emerge test, crop safety; details: crop damage, pre-emerge, phytotoxicity rating 0-100 at 14 days after application
Method in brief: as §2

[14] = test system: upland rice (Oryza sp., var. Tebonnet, RICE); assay: Pre-emerge test, crop safety; details: crop damage, pre-emerge, phytotoxicity rating 0-100 at 14 days after application
Method in brief: as §2

[15] = test system: velvetleaf (Abutilon theophrasti, ABUTH); assay: Pre-emerge test, greenhouse herbicide activity screening; details: pre-emerge, phytotoxicity rating 0-100 at 14 days after application
Method in brief: as §3

[16] = test system: sicklepod (Cassia obtusifolia, CASOB); assay: as above; details: pre-emerge, phytotoxicity rating 0-100 at 14 days after application
Method in brief: as §3

[17] = test system: lambsquarters (Chenopodium album, CHEAL); assay: as above; details: pre-emerge, phytotoxicity rating 0-100 at 14 days after application
Method in brief: as §3

[18] = test system: large crabgrass (Digitaria sanguinalis, DIGSA); assay: as above; details: pre-emerge, phytotoxicity rating 0-100 at 14 days after application
Method in brief: as §3

[19] = test system: johnsongrass (Sorghum halepense, SORHA); assay: as above; details: pre-emerge, phytotoxicity rating 0-100 at 14 days after application
Method in brief: as §3

[20] = test system: barnyardgrass (Echinochloa crus-galli, ECHCG); assay: as above; details: pre-emerge, phytotoxicity rating 0-100 at 14 days after application
Method in brief: as §3

[21] = test system: ivyleaf morningglory (Ipomoea hederacea, IPOHE); assay: as above; details: pre-emerge, phytotoxicity rating 0-100 at 14 days after application
Method in brief: as §3

[22] = test system: green foxtail (Setaria viridis, SETVI); assay: as above; details: pre-emerge, phytotoxicity rating 0-100 at 14 days after application
Method in brief: as §3

COc1ccc(COC(=O)Nc2c(C)c(Cl)cc(F)c2-n2c(=O)cc(C(F)(F)F)n(C)c2=O)cc1OC [4-63]
Post-emerge Herbicidal Activity ABUTH ([1]; 63 g ai/ha): 100
Post-emerge Herbicidal Activity ABUTH ([1]; 250 g ai/ha): 100
Post-emerge Herbicidal Activity CASOB ([2]; 63 g ai/ha): 60
Post-emerge Herbicidal Activity CASOB ([2]; 250 g ai/ha): 100
Post-emerge Herbicidal Activity CHEAL ([3]; 63 g ai/ha): 80
Post-emerge Herbicidal Activity CHEAL ([3]; 250 g ai/ha): 100
Post-emerge Herbicidal Activity DIGSA ([4]; 63 g ai/ha): 0
Post-emerge Herbicidal Activity DIGSA ([4]; 250 g ai/ha): 10
Post-emerge Herbicidal Activity SORHA ([5]; 63 g ai/ha): 0
Post-emerge Herbicidal Activity SORHA ([5]; 250 g ai/ha): 10
Post-emerge Herbicidal Activity AMARE ([6]; 63 g ai/ha): 100
Post-emerge Herbicidal Activity AMARE ([6]; 250 g ai/ha): 100
Post-emerge Herbicidal Activity ECHCG ([7]; 63 g ai/ha): 0
Post-emerge Herbicidal Activity ECHCG ([7]; 250 g ai/ha): 20
Post-emerge Herbicidal Activity IPOHE ([8]; 63 g ai/ha): 100
Post-emerge Herbicidal Activity IPOHE ([8]; 250 g ai/ha): 100
Post-emerge Herbicidal Activity SETVI ([9]; 63 g ai/ha): 0
Post-emerge Herbicidal Activity SETVI ([9]; 250 g ai/ha): 30
Pre-emerge Herbicidal Activity AMARE ([10]; rate 63 g ai/ha): 100
Pre-emerge Herbicidal Activity AMARE ([10]; rate 250 g ai/ha): 100
Post-emerge Herbicidal Activity CORN ([11]; 63 g ai/ha): 10
Post-emerge Herbicidal Activity CORN ([11]; 250 g ai/ha): 30
Post-emerge Herbicidal Activity RICE ([12]; 63 g ai/ha): 10
Post-emerge Herbicidal Activity RICE ([12]; 250 g ai/ha): 60
Pre-emerge Herbicidal Activity CORN ([13]; rate 63 g ai/ha): 0
Pre-emerge Herbicidal Activity CORN ([13]; rate 250 g ai/ha): 35
Pre-emerge Herbicidal Activity RICE ([14]; rate 63 g ai/ha): 40
Pre-emerge Herbicidal Activity RICE ([14]; rate 250 g ai/ha): 90
Pre-emerge Herbicidal Activity ABUTH ([15]; rate 63 g ai/ha): 100
Pre-emerge Herbicidal Activity ABUTH ([15]; rate 250 g ai/ha): 100
Pre-emerge Herbicidal Activity CASOB ([16]; rate 63 g ai/ha): 40
Pre-emerge Herbicidal Activity CASOB ([16]; rate 250 g ai/ha): 100
Pre-emerge Herbicidal Activity CHEAL ([17]; rate 63 g ai/ha): 100
Pre-emerge Herbicidal Activity CHEAL ([17]; rate 250 g ai/ha): 100
Pre-emerge Herbicidal Activity DIGSA ([18]; rate 63 g ai/ha): 70
Pre-emerge Herbicidal Activity DIGSA ([18]; rate 250 g ai/ha): 95
Pre-emerge Herbicidal Activity SORHA ([19]; rate 63 g ai/ha): 30
Pre-emerge Herbicidal Activity SORHA ([19]; rate 250 g ai/ha): 50
Pre-emerge Herbicidal Activity ECHCG ([20]; rate 63 g ai/ha): 30
Pre-emerge Herbicidal Activity ECHCG ([20]; rate 250 g ai/ha): 70
Pre-emerge Herbicidal Activity IPOHE ([21]; rate 63 g ai/ha): 40
Pre-emerge Herbicidal Activity IPOHE ([21]; rate 250 g ai/ha): 100
Pre-emerge Herbicidal Activity SETVI ([22]; rate 63 g ai/ha): 70
Pre-emerge Herbicidal Activity SETVI ([22]; rate 250 g ai/ha): 100
